Assay results published in patent publication US5821262A, “Hydroxamic acid derivatives as inhibitors of cytokine production” (British Biotech Pharmaceuticals Limited, priority 1993, dated 1998).

Columns and labels:
collagenase = target: T1, collagenase (Homo sapiens, UniProt P03956); assay: collagenase inhibition, 14C collagen, procedure of Cawston and Barrett; format: biochemical; settings: 37°, 16 hours, pH 7.5
T1 sequence (P03956 100-469): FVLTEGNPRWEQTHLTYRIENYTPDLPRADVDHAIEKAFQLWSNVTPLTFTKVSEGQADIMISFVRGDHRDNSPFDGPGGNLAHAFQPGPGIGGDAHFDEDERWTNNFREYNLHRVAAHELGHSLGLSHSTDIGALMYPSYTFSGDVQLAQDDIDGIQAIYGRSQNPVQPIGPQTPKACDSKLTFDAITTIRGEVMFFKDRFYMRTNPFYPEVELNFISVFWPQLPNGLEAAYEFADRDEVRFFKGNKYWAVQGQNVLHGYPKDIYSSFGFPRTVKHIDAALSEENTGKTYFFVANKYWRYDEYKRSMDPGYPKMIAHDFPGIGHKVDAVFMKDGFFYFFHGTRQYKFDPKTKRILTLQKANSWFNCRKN
Source text: The collagen was acetylated ^14 C collagen prepared by the method of Cawston and Murphy, (Methods in Enzymology, 80, 711, 1981), hereby incorporated by reference. The samples were centrifuged to sediment undigested collagen, and an aliquot of the radioactive supernatant removed for assay on a scintillation counter as a measure of hydrolysis.

stromelysin = stromelysin (Homo sapiens, UniProt P08254); assay: stromelysin inhibition, 14C acetylated casein, procedure of Cawston et al; format: biochemical; settings: 37°, 16 hours, pH 7.5
Description: The potency of compounds of Examples 1 to 6 to act as inhibitors of stromelysin was determined by the procedure of Cawston et al, (Biochem. J., 195, 159-165, 1981), hereby incorporated by reference, whereby a 1 mM solution of the compound being tested, or a dilution thereof, was incubated at 37° for 16 hours with stromelysin and ^14 C acetylate casein (buffered with 25 mM Hepes, pH 7.5 containing 5 mM CaCl2, 0.05% Brij 35 and 0.02% NaN3). The casein was acetylated ^14 C casein prepared by the method of Cawston et al (ibid).

[1] = tested on: TNFα release from human monocytic cell line U937; assay: inhibition of PMA-stimulated TNFα release from U937 cells (ELISA); format: cell-based; settings: U-937, PMA 50 nM, 18 hours, 37° C., read-out: IC50, concentration which inhibits the release of TNFα by 50% relative to control culture
Description: The ability of example compounds of the invention to inhibit the release of TNF was investigated. The assay is based on the ability of phorbol myristate acetate (PMA) to stimulate the release of TNF a from a human monocytic cell line, U937.
U937 cells cultured in RPMI 1640 medium+5% foetal calf serum are centifuged at 1000×g for 5 minutes and then resuspended in medium at 2×10^6 /ml. 1 ml of cell suspension is aliquoted into individual wells of 24-well plates. Test compounds are dissolved in dimethyl sulphoxide (DMSO) at a stock concentration of 100 mM, then diluted to 50× the final required concentration with RPMI 1640 medium. 20 μl of the diluted compounds are added to U937 cells in duplicate wells. TNF a release is stimulated by addition of PMA to the cells at a final concentration of 50 nM. Appropriate control cultures are set up in duplicate. The plates are incubated for 18 hours at 37° C., 5% CO2, then centrifuged at 1000×g for 5 minutes. A specific ELISA for TNFα obtained from British Bio-technology Products Limited, Abingdon, England is used to measure TNFα levels in the culture supernatants
The average concentration of test compound which inhibits the release of TNF a by 50% relative to the control culture was assessed.

TNF = assay: inhibition of endotoxin (LPS) induced TNF production in vivo, serum TNF in anaesthetised rats; parameters: species or system male CD rats; settings: rat, 10 mg/kg intravenous 15 minutes prior to LPS 50 μg/kg, infusion maintained 2 hours
Description: The compound of Example 1 was assessed for its ability to inhibit release of endotoxin induced TNF production in vivo.
Male Male CD rats (Charles River, UK) weighing between 300 g-400 g were anaesthetised with an intra-peritoneal injection of a mixture of 62.5 mg·kg^-1 thiopental and 22.5 mg·kg^-1 sodium pentobarbitone (Thiopental, Sigma Chemical Co., UK; Sodium pentobarbitone (Sagatal), May and Baker., UK). The trachea was exposed and cannulated to allow spontaneous respiration through a patent airway. The left jugular vein was exposed and cannulated for the administration of LPS. The right femoral artery was exposed and cannulated for withdrawal of blood samples.
Blood samples (1 ml) were removed just prior to bolus administration of either LPS (E. coli serotype 0111:b4, Difco Laboratories, USA) or saline (NaCL 0.9% w/v) and at intervals of 1 hour and 2 hours after LPS. Removed blood was replaced with equal amounts of saline.
The peak of TNF release was at the 1 hour timepoint. […] levels were expressed in units/ml where 1 unit is the equivalent of 1 pg of mouse TNFα.
Rat serum TNF levels were measured using a mouse TNFα reference standard. The commercial ELISA kits were from Genzyme.
The compound of example 1 was administered intravenously to aneasthetised rats at a dose of 10 mg·kg^-1, 15 minutes prior to LPS administration. […]

Sequence of stromelysin (P08254 100-477): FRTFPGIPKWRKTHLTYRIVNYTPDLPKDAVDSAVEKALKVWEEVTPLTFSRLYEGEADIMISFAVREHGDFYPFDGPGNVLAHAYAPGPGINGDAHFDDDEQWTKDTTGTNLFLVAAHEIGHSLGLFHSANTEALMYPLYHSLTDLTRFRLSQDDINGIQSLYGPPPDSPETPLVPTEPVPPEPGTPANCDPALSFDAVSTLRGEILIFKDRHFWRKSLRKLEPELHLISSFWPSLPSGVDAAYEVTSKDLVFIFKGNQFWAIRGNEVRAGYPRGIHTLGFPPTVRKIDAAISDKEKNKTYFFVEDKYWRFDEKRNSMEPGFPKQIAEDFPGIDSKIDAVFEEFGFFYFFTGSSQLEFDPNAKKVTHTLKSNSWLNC

Structure (SMILES)	IC50 (collagenase) [nM]	IC50 (stromelysin) [nM]	IC50 [1] [nM]	reduction of LPS-induced release of TNF, 1 hour timepoint (TNF; 1 hour after LPS)	reduction of LPS-induced release of TNF, 2 hour timepoint (TNF; 2 hours after LPS)
CNC(=O)[C@H](CCCCNC(=O)OC(C)(C)C)NC(=O)[C@H](CC(C)C)[C@H](CSc1ccc(O)cc1)C(=O)NO [Example 2, N^2-[4-(N-Hydroxyamino)-3S-(4-hydroxyphenylthiomethyl)-2R-isobutylsuccinyl]-N^6-tert-butyloxycarbonyl-L-lysine-N^1-methylamide]	15	15	< 50000		
CNC(=O)CC[C@H](NC(=O)[C@H](CC(C)C)[C@H](CSc1ccc(O)cc1)C(=O)NO)C(=O)NC [Example 6, N^2-[4-(N-Hydroxyamino)-3S-(4-hydroxyphenylthiomethyl)-2R-isobutylsuccinyl]-L-glutamine-N^1,N^5-dimethylamide]	6	70	< 50000		
CNC(=O)[C@@H](NC(=O)[C@H](CC(C)C)[C@H](CSc1ccc(O)cc1)C(=O)NO)[C@@H](C)OC(C)(C)C [Example 5, N^2-[4-(N-Hydroxyamino)-3S-(4-hydroxyphenylthiomethyl)-2R-isobutylsuccinyl]-O-tert-butyl-L-threonine-N^1-methylamide]	5	40			
CNC(=O)[C@H](CCCCNC(C)=O)NC(=O)[C@H](CC(C)C)[C@H](CSc1ccc(O)cc1)C(=O)NO [Example 1, N^2-[4-(N-Hydroxyamino)-3S-(4-hydroxyphenylthiomethyl)-2R-isobutylsuccinyl]-N^6-acetyl-L-lysine-N^1-methylamide]			< 50000	more than 50%	more than 50%
CNC(=O)[C@H](CCCCNC(=O)OC(C)(C)C)NC(=O)[C@H](CC(C)C)[C@H](CSc1cccs1)C(=O)NO [Example 4, N^2-[4-(N-Hydroxyamino)-3S-(2-thienythiomethyl)-2R-isobutylsuccinyl]-N^6-tert-butyloxycarbonyl-L-lysine-N^1-methylamide]		20	< 50000		
CNC(=O)[C@H](CCCCN(CSc1ccc(O)cc1)C(=O)OC(C)(C)C)NC(=O)[C@H](CC(C)C)[C@H](CSc1ccc(O)cc1)C(=O)NO [Example 3, N^2-[4-(N-Hydroxyamino)-3S-(4-hydroxyphenylthiomethyl)-2R-isobutylsuccinyl]-N^6-tert-butyloxycarbonyl-N^6-(4-hydroxyphenylthiomethyl)-L-lysine-N^1-methylamide]	30	50	< 50000		
